Source: PubChem BioAssay (NCI)
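Cultured in 96-well plates, cells were exposed to test compound for 48 hours across five concentrations. TGI marks complete inhibition of growth.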

Legend:
Test in all cases: DTP human tumour cell line panel, 48 h
ACHN renal = tested on: ACHN renal
HCC-2998 colon = tested on: HCC-2998 colon
HT29 colon = tested on: HT29 colon
K-562 leukemia = tested on: K-562 leukemia
KM12 colon = tested on: KM12 colon
OVCAR-5 ovarian = tested on: OVCAR-5 ovarian
MCF7 breast = tested on: MCF7 breast
RPMI-8226 leukemia = tested on: RPMI-8226 leukemia
SF-268 CNS = tested on: SF-268 CNS
HS 578T breast = tested on: HS 578T breast

| Structure (SMILES) | TGI (ACHN renal) [µM] | TGI (HCC-2998 colon) [µM] | TGI (HT29 colon) [µM] | TGI (K-562 leukemia) [µM] | TGI (KM12 colon) [µM] | TGI (OVCAR-5 ovarian) [µM] | TGI (MCF7 breast) [µM] | TGI (RPMI-8226 leukemia) [µM] | TGI (SF-268 CNS) [µM] | TGI (HS 578T breast) [µM] |
| --- | --- | --- | --- | --- | --- | --- | --- | --- | --- | --- |
| CC(C)c1cccc(C(C)C)c1NC(=O)C(=O)Cc1nc2ccc([N+](=O)[O-])cc2[nH]c1=O | > 100 | > 100 | > 100 | > 100 | 28.7 | > 100 |  |  |  |  |
| CN(C)CCN(C)P12(Oc3ccccc3O1)Oc1c(Cl)c(Cl)c(Cl)c(Cl)c1O2 | > 100 | > 100 | > 100 | > 100 |  | > 100 | > 100 | > 100 | > 100 |  |
| Clc1ccc(Nc2nnc(CNc3ccc(-c4nnc(Nc5ccc(Cl)cc5)s4)cc3)s2)cc1 | > 100 | 48.9 | 24.4 | > 100 | 36.6 | > 100 | > 100 | > 100 | > 100 |  |
| [N-]=[N+]=Nc1ccccc1-c1ccccc1[N+](=O)[O-] | > 100 |  | > 100 | > 100 | > 100 | > 100 | > 100 | > 100 | > 100 | > 100 |
| CC(C)OC(=O)c1ccc(NCc2cc(O)ccc2O)cc1 | 13.5 | 28.6 | 31.5 | 6.98 | 12.5 | 15.9 | 18.9 |  | 28.4 | > 29.6 |
| COC(=O)C1CC2C=CC=CC(=O)C2(C)C1 (stereo not drawn) | > 100 |  | > 100 | > 100 | > 100 | > 100 |  | 59.5 | > 100 |  |
| CCNC(=O)C(C)C1CCC2(C)C=CC(=O)C(C)=C2C1O (stereo not drawn) |  | > 100 | > 100 | > 100 | > 100 | > 100 | > 100 | > 100 | > 100 |  |
| CC(C)Oc1c(C2(c3ccccc3)SCCCS2)c(=O)c1=O | > 100 |  | > 100 |  | > 100 | > 100 | > 100 |  | > 100 | > 100 |
| CSc1ncnc2c1cnn2Cc1cnnn1COCC(O)CO (stereo not drawn) | > 100 | > 100 | > 100 | > 100 | > 100 | > 100 | > 100 | > 100 | 46.5 |  |
| OCC#CCNCl |  | > 100 | > 100 | > 100 | > 100 | > 100 | > 100 | > 100 | > 100 |  |
| C/C(=C/C(=O)Nc1ccccc1)Nc1onc(C)c1C |  | > 100 | > 100 | > 100 | > 100 | > 100 | > 100 | > 100 | > 100 |  |
| Cc1cc2ncn(-c3nc4ccccc4nc3C(C#N)S(C)(=O)=O)c2cc1C (stereo not drawn) | > 100 | > 100 |  | > 100 | > 100 | > 100 |  | > 100 | > 100 |  |
| CC(=O)OI1NC(=O)c2ccccc21 | > 100 |  | > 100 | > 100 | > 100 | > 100 | > 100 | > 100 | > 100 | > 100 |
| C#CC[C@@H]1C(=O)N(Cc2ccc(OC)cc2)[C@@H](C(C)C)C(=O)N1Cc1ccc(OC)cc1 | > 100 | > 100 | 55.1 | > 100 | > 100 | > 100 | 54.9 |  | > 100 | > 100 |
| S=c1sc2c(s1)SC(c1ccccc1)CS2 (stereo not drawn) |  | > 100 | > 100 | > 100 | > 100 | > 100 | > 100 | > 100 | > 100 |  |
| N#CC(NNC(=O)Cc1ccccc1)c1cccc(O)c1 (stereo not drawn) | > 100 |  | > 100 | > 100 | > 100 | > 100 |  | > 100 | > 100 |  |
| CC1=C(c2nc3ccccc3s2)C(=O)OC1(C)C | > 100 | > 100 | > 100 | > 100 | > 100 | > 100 |  | > 100 | > 100 |  |
| CCCCCCCC/C=C1\CCC(CN(C)C)C1=O (stereo not drawn) | 18.7 | 22 | 12.5 | 7.2 | 7.09 | 35.5 |  | 0.763 | 21.2 |  |
| CC1(C)CCN2C(=O)C34CCCC3CC21S4 (stereo not drawn) | > 100 |  | > 100 | > 100 | > 100 | > 100 | > 100 | > 100 | > 100 | > 100 |
